Laboratory results as given in PubChem BioAssay (NCI).
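In this assay, cells in 96-well plates receive the compound at five concentrations for 48 hours. Endpoints are linearly interpolated between the surrounding concentrations. TGI denotes the concentration required for complete inhibition of growth.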

Tests used:
Test in all cases: NCI tumour cell line growth inhibition, 48 h
786-0 renal = system: 786-0 renal
A498 renal = system: A498 renal
A549 NSCLC = system: A549 NSCLC
ACHN renal = system: ACHN renal
BT-549 breast = system: BT-549 breast
CAKI-1 renal = system: CAKI-1 renal
CCRF-CEM leukemia = system: CCRF-CEM leukemia
COLO 205 colon = system: COLO 205 colon
DU-145 prostate = system: DU-145 prostate
EKVX NSCLC = system: EKVX NSCLC
HCT-116 colon = system: HCT-116 colon
HCT-15 colon = system: HCT-15 colon
HL-60(TB) leukemia = system: HL-60(TB) leukemia
HOP-62 NSCLC = system: HOP-62 NSCLC
HS 578T breast = system: HS 578T breast
HT29 colon = system: HT29 colon
IGROV1 ovarian = system: IGROV1 ovarian
K-562 leukemia = system: K-562 leukemia
KM12 colon = system: KM12 colon
M14 melanoma = system: M14 melanoma
MALME-3M melanoma = system: MALME-3M melanoma
MDA-MB-231 breast = system: MDA-MB-231 breast
MDA-MB-435 = system: MDA-MB-435
MDA-N = system: MDA-N
MOLT-4 leukemia = system: MOLT-4 leukemia
NCI-H226 lung = system: NCI-H226 lung
NCI-H23 lung = system: NCI-H23 lung
NCI-H460 lung = system: NCI-H460 lung
NCI-H522 lung = system: NCI-H522 lung
NCI/ADR-RES ovarian = system: NCI/ADR-RES ovarian
OVCAR-3 ovarian = system: OVCAR-3 ovarian
OVCAR-4 ovarian = system: OVCAR-4 ovarian
OVCAR-5 ovarian = system: OVCAR-5 ovarian
OVCAR-8 ovarian = system: OVCAR-8 ovarian
PC-3 prostate = system: PC-3 prostate
RPMI-8226 leukemia = system: RPMI-8226 leukemia
RXF 393 renal = system: RXF 393 renal
SF-268 CNS = system: SF-268 CNS
SF-295 CNS = system: SF-295 CNS
SK-MEL-2 melanoma = system: SK-MEL-2 melanoma
SK-MEL-28 melanoma = system: SK-MEL-28 melanoma
SK-MEL-5 melanoma = system: SK-MEL-5 melanoma
SK-OV-3 ovarian = system: SK-OV-3 ovarian
SN12C renal = system: SN12C renal
SNB-19 CNS = system: SNB-19 CNS
SNB-75 CNS = system: SNB-75 CNS
SW-620 colon = system: SW-620 colon
TK-10 renal = system: TK-10 renal
U251 CNS = system: U251 CNS
UACC-257 melanoma = system: UACC-257 melanoma
UACC-62 melanoma = system: UACC-62 melanoma
UO-31 renal = system: UO-31 renal
HCC-2998 colon = system: HCC-2998 colon
LOX IMVI melanoma = system: LOX IMVI melanoma
MCF7 breast = system: MCF7 breast
SF-539 CNS = system: SF-539 CNS
SR leukemia = system: SR leukemia
T-47D breast = system: T-47D breast

Measured: TGI

c1ccc2c(c1)NCCC(=NC1CCCCC1)N2
not listed: HCC-2998 colon | LOX IMVI melanoma | MCF7 breast | SF-539 CNS | SR leukemia | T-47D breast
> 100 µM: all other assays above

NC(=O)C(=O)c1ncn(Cc2ccccc2)c1N
not listed: BT-549 breast | MOLT-4 leukemia | UO-31 renal
> 100 µM: all other assays above
